Earlier results in patent publication US11103473B2, “Treatment and prevention of autism and autism spectrum disorders” (ASDERA LLC, priority 2013, dated 2021).
Like-named read-outs stand apart in the source and are kept apart here.

What was measured:
[1] = for ulcerative index (UI): equimolar dose, prodrug vs parent NSAID
[2] = system: Rat: Hint paw
[3] = not given; remark: listed apart in the source
[4] = system: Mouse: writhing; conditions: relative to parent
[5] = not given; remark: listed apart in the source
[6] = prodrug vs parent DCF
[7] = pH 7.1
[8] = not given; remark: listed apart in the source
[9] = target: albumin (Homo sapiens, UniProt P02768)
albumin, sequence (P02768 25-609): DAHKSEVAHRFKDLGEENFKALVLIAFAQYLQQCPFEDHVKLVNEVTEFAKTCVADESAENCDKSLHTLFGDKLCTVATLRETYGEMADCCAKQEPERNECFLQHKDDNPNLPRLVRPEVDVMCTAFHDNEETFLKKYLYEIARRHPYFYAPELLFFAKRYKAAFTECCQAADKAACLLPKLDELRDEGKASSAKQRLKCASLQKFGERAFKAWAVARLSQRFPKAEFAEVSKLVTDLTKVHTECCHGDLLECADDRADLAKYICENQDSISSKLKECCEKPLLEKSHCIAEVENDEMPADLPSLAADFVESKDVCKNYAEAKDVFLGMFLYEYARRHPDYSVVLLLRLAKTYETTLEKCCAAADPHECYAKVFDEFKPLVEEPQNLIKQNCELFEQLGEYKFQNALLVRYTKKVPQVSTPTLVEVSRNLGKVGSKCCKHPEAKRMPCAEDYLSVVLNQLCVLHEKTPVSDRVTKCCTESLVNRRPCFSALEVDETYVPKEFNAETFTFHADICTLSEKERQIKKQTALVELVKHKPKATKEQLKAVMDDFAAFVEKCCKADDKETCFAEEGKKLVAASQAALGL

[10] = for Cmax (μg/ml) / Tmax (h) / % excreted (5 d) / t1/2 (h): mean; for Cmax (μg/ml) / Tmax (h): Ito (1994); for % excreted (5 d): Sato (1997)
[11] = system: animal models of seizures; conditions: in vivo
[12] = relative to parent, animal models

## CC(C)Cc1ccc(C(C)C(=O)O)cc1 (stereo not shown) [ibuprofen, 2-[4-(2-methylpropyl)phenyl]propanoic acid]
[1]
  ulcerative index (UI): 45.8

## CC(C)c1c(CO)n(C)n(-c2ccccc2)c1=O [HMP, 3-hydroxymethyl propyphenazon]
[1]; in vivo
  average number of ulcers: 1.25

## CC(=O)Nc1ccc(OC(=O)c2ccccc2Nc2cccc(C)c2C)cc1 [MFA-APAP Without spacer]
[2]; relative to parent
  Rat: Hint paw vs MFA: “better”
Simulated gi fluid
  t1/2 [h] pH 1.2 (SGF): “suffi-
[3]
  t1/2 [h] pH 7.5 (serum/plasma): “shorter
[1]; in vivo
  GI risk vs MFA: “no

## Cc1cccc(Nc2ccccc2C(=O)O[C@@H]2C[C@H](C)CC[C@H]2C(C)C)c1C [MFA-menthol]
[2]; relative to parent
  Rat: Hint paw vs MFA: 115%
[4]
  Mouse: writhing vs MFA: 115%
Simulated gastric fluid
  t1/2 [h] pH 1.2 (SGF): 20.8 h
[5]; simulated intestinal fluid
  t1/2 [h] pH 7.5 (SIF): 8.9 h
[1]; in vivo
  ulcer index vs parent drug: better ulcer index than the parent drug
[1]; [12]
  GI risk vs MFA: 50%

## CC(=O)Oc1ccccc1C(=O)O [Aspirin, 2-(acetyloxy)benzoic acid]
[1]
  ulcerative index (UI): 57.4

## O=C(O)Cc1ccccc1Nc1c(Cl)cccc1Cl [DCF, 2-(2-[(2,6-dichlorophenyl)amino]phenyl)acetic acid]
[6]
  Cmax: 20.19 ± 6.01 µg/mL
[1]; 50 mg/kg
  gastric damage: severe gastric damage
[1]; 200 mg/kg
  gastric damage: markedly more damage

## Cc1cccc(Nc2ccccc2C(=O)OCc2c(C(C)C)c(=O)n(-c3ccccc3)n2C)c1C [MFA-PPA Without spacer]
[2]; @2-6 h
  Rat: Hint paw vs MFA: ≈60%
[4]
  Mouse: writhing vs MFA: 63%
Simulated gi fluid
  t1/2 [h] pH 1.2 (SGF): 18.7 h
Simulated gi fluid, pH 1.2
  half-life in simulated gastric fluid: 18.69 h
[5]; simulated gi fluid, pH 7.4
  half-life in simulated intestinal fluid: 8.98 h
[5]; simulated gi fluid
  t1/2 [h] pH 7.5 (SIF): 9.0 h
[1]; in vivo
  GI risk vs MFA: 30%
  average number of ulcers: 1.00

## Cc1ccc(C(C)C)c(OC(=O)c2ccccc2Nc2cccc(C)c2C)c1 [MFA-thymol]
[2]; relative to parent
  Rat: Hint paw vs MFA: 125%
[4]
  Mouse: writhing vs MFA: 150%
Simulated gi fluid
  t1/2 [h] pH 1.2 (SGF): 23.1 h
[5]; simulated gi fluid
  t1/2 [h] pH 7.5 (SIF): 7.1 h
[1]; in vivo
  ulcer index vs parent drug: better ulcer index than the parent drug
[1]; [12]
  GI risk vs MFA: 60%

## Cc1cccc(Nc2ccccc2C(=O)O)c1C [MFA, 2-[(2,3-dimethylphenyl)amino]benzoic acid]
[7]
  water solubility: 0.004%
[8]; 500 mg oral dose
  apparent volume of distribution (Vzss/F): 1.06 L/kg
[8]; adults
  time of peak levels (PL): 2 h
[8]; adults, 1 g 4x daily, reached on the 2nd day
  steady-state concentrations: 20 µg/mL
[8]; after a 1 g oral dose
  plasma PL: 10 to 20 µg/mL
  time to plasma PL: 2 to 4 h
[8]; after multiple doses
  drug accumulation: no evidence of drug accumulation
[8]; in vivo
  elimination half-life: ~2 h and ≈ 2 h
[8]; mainly unconjugated 3-carboxy MFA
  fecal route of elimination, share of the dose: ≤ 20%
[8]; share of MFA dose per species
  dose excreted into the urine as glucuronide of: 6%
[8]; total, primarily as glucuronides
  dose excreted into the urine: Approximately 52%
[8]; two 500 mg single oral dose studies
  mean absorption: 30.5 µg/h/mL
[9]
  bound to albumin: > 90%
[10]; Healthy Adults (18-56 yr)
  Cmax: 10.0 µg/mL
  Tmax: 2.0 h
  t1/2: 2 to 4 h
[10]; Preterm Children (0-5 d)
  Cmax (μg/ml): 3.8 (12) μg/ml
  Tmax (h): 8.0 (12) h
  % excreted (5 d): 16.6 (5) %
[10]; Preterm Children (0-5 d), bottom: Sato (1997)
  t1/2 (h): 27.0 (5) h
[10]; Preterm Children (0-5 d), top: Ito (1994)
  t1/2 (h): 21.7 (12) h
[10]; Preterm Children (6-22 d)
  Cmax (μg/ml): 3.7 (5) μg/ml
  Tmax (h): 6.8 (5) h
  % excreted (5 d): 45.7 (1) %
[10]; Preterm Children (6-22 d), bottom: Sato (1997)
  t1/2 (h): 8.4 (1) h
[10]; Preterm Children (6-22 d), top: Ito (1994)
  t1/2 (h): 11.6 (5) h
[11]
  efficacy in animal models of seizures: shown efficacy
[1]; in vivo
  average number of ulcers: 3.17
